# From ChEMBL document CHEMBL1201862, “PubChem BioAssay data set” (2004)
# Active and inactive are the calls of the source. For most assays here, no stated cut-off is given here; in the data, actives have a measured EC50 and inactives only a lower limit.
# Assays:
# [1] = Luminescence Cell-Based Dose Confirmation HTS to Identify Inhibitors of Platelet Dense Granule Release. [Related pubchem assays: 1663 (Primary HTS), 1678 (Summary of Project)]; assay type: functional
# [2] = molecular target: Luciferin 4-monooxygenase (Photinus pyralis, UniProt P08659); assay: inhibition of purified Photinus pyralis luciferase – biochemical, luminescence, dose response (AID 1891)
# [3] = test system: H9c2; assay: cells; assay type: functional, cell-based; details: Rattus norvegicus, H9c2, Myocardium;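 further: confirmatory concentration-response retest of ultra-high-throughput screening hits for modulation of myocardial damage; cell death induced by hydrogen peroxide oxidative stress; compound pretreatment for 60 min then peroxide exposure for 2 h; potency is for protecting the cells against peroxide damage rather than for killing them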
# [4] = Luminescence Cell-Based Dose Response HTS to Identify Activators of Luciferase Translation or Activity in H4 […] Cells. [Related pubchem assays: 1829 (Project Summary), 1814 (Primary HTS)]; assay type: functional
# [5] = Luminescence Cell-Based Dose Confirmation HTS to Identify Activators of 5'UTR Stem-Loop Driven Alpha-Synuclein mRNA Translation in H4 Neuroglioblastoma Cells. [Related pubchem assays: 1829 (Project Summary), 1814 (Primary HTS)]; assay type: functional
# [6] = test system: H4; assay: Luminescence Cell-Based Dose Response HTS to Identify Activators of 5'UTR Stem-Loop Driven Prion Protein mRNA Translation in H4 Neuroglioblastoma Cells. [Related pubchem assays: 1829 (Project Summary), 1814 (Primary HTS)]; assay type: functional; details: Homo sapiens
# [7] = molecular target: T1, Calpain-2 catalytic subunit (Sus scrofa, UniProt P43367); assay: m-calpain protease blockers, concentration series – biochemical, fluorogenic peptide substrate, dose response (AID 1420); assay type: functional
# T1 sequence (P43367 whole entry): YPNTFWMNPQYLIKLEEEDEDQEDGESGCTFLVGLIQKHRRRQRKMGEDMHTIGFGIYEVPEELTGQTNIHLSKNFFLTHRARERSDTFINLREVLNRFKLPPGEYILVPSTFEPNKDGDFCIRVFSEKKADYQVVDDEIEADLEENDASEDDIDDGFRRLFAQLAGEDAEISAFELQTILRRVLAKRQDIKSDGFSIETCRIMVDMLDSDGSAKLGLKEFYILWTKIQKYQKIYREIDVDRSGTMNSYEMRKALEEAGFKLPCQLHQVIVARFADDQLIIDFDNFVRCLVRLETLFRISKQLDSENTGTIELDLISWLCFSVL
# [8] = molecular target: T2, Heat shock factor protein 1 (Mus musculus, UniProt P38532); assay: enhancement of HSF1-driven luciferase signal – cell-based, NIH3T3, luminescence, dose retest, confirmation (AID 435004); assay type: functional;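 further: stress induced by proteasome inhibitor MG132 added 30 min after compound; luciferase reporter driven by HSF1 response element in NIH3T3 cells; actives raise luminescence as potentiators of the MG132 stress response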
# T2 sequence (P38532 whole entry): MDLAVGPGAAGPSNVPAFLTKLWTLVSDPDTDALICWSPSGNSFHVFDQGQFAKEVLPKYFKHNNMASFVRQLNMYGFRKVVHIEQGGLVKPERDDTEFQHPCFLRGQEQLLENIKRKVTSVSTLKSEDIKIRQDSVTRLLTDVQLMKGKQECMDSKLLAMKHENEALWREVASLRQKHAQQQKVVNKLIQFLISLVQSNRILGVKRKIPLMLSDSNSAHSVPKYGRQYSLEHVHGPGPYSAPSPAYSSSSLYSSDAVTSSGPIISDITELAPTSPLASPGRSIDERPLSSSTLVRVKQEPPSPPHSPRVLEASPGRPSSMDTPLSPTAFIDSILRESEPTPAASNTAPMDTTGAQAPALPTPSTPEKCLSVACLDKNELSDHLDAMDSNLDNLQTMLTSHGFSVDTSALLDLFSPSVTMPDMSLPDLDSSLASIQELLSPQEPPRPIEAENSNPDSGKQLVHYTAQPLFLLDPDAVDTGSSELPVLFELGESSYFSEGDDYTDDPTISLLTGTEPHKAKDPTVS
# [9] = molecular target: T3, Rac GTPase-activating protein 1 (Homo sapiens, UniProt Q9H0H5); assay: blockers of MgcRacGAP-driven Rac1 GTP hydrolysis – biochemical, ADP Hunter fluorescence, primary and confirmatory, confirmation (AID 624330); assay type: functional
# T3 sequence (Q9H0H5 whole entry): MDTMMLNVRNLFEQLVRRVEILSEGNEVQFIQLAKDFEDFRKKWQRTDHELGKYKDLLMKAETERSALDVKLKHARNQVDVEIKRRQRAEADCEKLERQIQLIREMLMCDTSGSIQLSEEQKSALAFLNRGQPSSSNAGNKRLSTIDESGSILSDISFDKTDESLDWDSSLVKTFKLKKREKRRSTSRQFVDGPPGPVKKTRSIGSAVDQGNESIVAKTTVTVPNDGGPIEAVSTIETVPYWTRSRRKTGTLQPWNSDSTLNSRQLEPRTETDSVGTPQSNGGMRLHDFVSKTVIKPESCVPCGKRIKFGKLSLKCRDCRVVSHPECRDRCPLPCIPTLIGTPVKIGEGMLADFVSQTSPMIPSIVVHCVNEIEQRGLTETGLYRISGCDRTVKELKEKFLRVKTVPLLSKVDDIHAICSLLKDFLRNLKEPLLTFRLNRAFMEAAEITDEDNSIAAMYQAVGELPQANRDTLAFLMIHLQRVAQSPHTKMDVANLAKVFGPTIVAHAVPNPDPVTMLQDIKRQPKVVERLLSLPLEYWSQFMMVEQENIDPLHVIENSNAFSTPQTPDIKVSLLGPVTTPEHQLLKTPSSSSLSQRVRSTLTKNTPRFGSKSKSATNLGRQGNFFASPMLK
# [10] = viability of uninfected HEp-2 cells – cell-based, HTS, cytotoxicity control for RSV inhibitor project, dose response (AID 2410); assay type: functional; details: human respiratory syncytial virus
# Chain of Luciferin 4-monooxygenase (P08659 whole entry): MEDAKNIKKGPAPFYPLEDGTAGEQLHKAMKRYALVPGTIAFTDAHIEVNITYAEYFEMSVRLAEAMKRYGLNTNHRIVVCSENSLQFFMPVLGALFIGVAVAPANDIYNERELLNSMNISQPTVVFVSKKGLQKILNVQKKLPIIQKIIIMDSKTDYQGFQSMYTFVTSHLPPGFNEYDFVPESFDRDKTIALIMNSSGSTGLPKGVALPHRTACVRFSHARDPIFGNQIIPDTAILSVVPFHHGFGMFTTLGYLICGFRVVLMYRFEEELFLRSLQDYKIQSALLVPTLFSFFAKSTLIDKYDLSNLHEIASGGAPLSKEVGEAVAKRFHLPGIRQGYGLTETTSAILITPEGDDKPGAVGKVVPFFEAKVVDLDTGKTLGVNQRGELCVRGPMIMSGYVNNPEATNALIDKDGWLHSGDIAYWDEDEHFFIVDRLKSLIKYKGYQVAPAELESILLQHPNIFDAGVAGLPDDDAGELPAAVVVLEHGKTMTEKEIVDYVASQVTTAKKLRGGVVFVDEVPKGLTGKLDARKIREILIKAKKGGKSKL
structure (smiles),measurement,setting,value
COc1cccc(OCCNC(=O)c2cccc(OC)c2)c1,EC50,[1],> 112 µM (not active)
same,EC50,[2],> 112 µM (not active)
CCOc1cc(NC(=O)C2CC2)c(OCC)cc1NC(=O)c1ccccn1,IC50,[3],12.6 µM (active)
Cc1ccc(CN(C)C(=O)COC(=O)CSc2ccc(C(N)=O)cc2[N+](=O)[O-])cc1,IC50,[3],> 79 µM (inactive)
CN1CCN(CCCNC(=O)c2cc3c(=O)n(C)c4ccccc4c3s2)CC1,EC50,[4],11.7 µM (active)
same,EC50,[5],> 120 µM (not active)
same,EC50,[6],> 120 µM (not active)
CC(C)(C)n1nc2c(c1NC(=O)c1cc([N+](=O)[O-])ccc1Cl)CS(=O)(=O)C2,EC50,[4],18.9 µM (active)
same,EC50,[5],17.8 µM (active)
same,EC50,[6],> 120 µM (not active)
COC(=O)C(Cc1ccc(O)cc1)NC(=O)C12CC3CC(CC(C3)C1)C2 (stereo unspecified),EC50,[1],17.2 µM (active)
same,EC50,[2],> 112 µM (not active)
CCOc1ccc(N(CC(=O)Nc2cccc(OC)c2)S(=O)(=O)c2c(C)noc2C)cc1,IC50,[7],5.86 µM (not active)
O=c1c2c(-c3cccs3)csc2ncn1-n1cccc1,IC50,[7],> 50 µM (not active)
CC(=O)Nc1ccc(NC(=O)Cn2nc([N+](=O)[O-])c(Br)c2C)cc1,IC50,[7],11.6 µM (not active)
Cc1ccc(NC(=O)CNC(=O)c2ccccc2F)cc1Cl,IC50,[7],37.6 µM (not active)
O=C(CCc1nc(O)c2ccccc2n1)Nc1ccc(Cl)c(Cl)c1,IC50,[3],15.4 µM (active)
CC(Cc1ccccc1)/[N+]([O-])=C\c1ccc(C(F)(F)F)cc1 (stereo unspecified),EC50,[4],6.29 µM (active)
same,EC50,[5],1.2 µM (active)
same,EC50,[6],4.53 µM (active)
N=C(NOC(=O)c1cc(Cl)ccc1Cl)c1ccncc1,EC50,[4],1.87 µM (active)
same,EC50,[5],9.04 µM (active)
same,EC50,[6],28.1 µM (active)
CCOc1cc(/C=C2/SC(=S)N(CC3CCCO3)C2=O)ccc1O (stereo unspecified),EC50,[8],> 260 µM (inactive)
O=c1c(Cl)cc(Cl)nn1-c1ccccc1,EC50,[8],24.7 µM (active)
CCOc1ccc(C(C(=O)NC2CCCC2)N(C(=O)c2snc(C(N)=O)c2N)c2cccc(O)c2)cc1 (stereo unspecified),IC50,[3],> 79 µM (inactive)
Oc1ccc(Br)cc1/C=N/c1ccc2c3c(cccc13)CC2,IC50,[3],> 79 µM (inactive)
same,IC50,[9],33.5 µM (active)
N#CCCSc1ccccc1NC(=O)c1cc(=O)c2ccccc2o1,IC50,[3],19.3 µM (active)
CCNc1ccc(S(=O)(=O)N(C)C)cc1NCC(=O)Nc1ccccc1Br,EC50,[8],> 260 µM (inactive)
O=C(NNC(=O)c1cc(OCC(F)(F)F)ccc1OCC(F)(F)F)c1ccc(Cl)c(Cl)c1,IC50,[7],6.1 µM (not active)
CC(C)(C)N(NS(=O)(=O)c1ccc(F)cc1)c1ccccc1,EC50,[8],> 260 µM (inactive)
O=C1[C@@H]2Cc3c([nH]c4ccccc34)C(c3ccc([N+](=O)[O-])cc3)N2C(=O)CN1C1CC1 (stereo partly specified),EC50,[8],> 260 µM (inactive)
CCc1nc2c(sc3nc4c(cc32)COC(C)(C)C4)c(=O)n1Cc1ccco1,EC50,[8],> 260 µM (inactive)
COc1ccccc1[C@@H]1C(c2cccc(Cl)c2)=NN(c2ccccc2)[C@H]1C(=O)N1CCOC1=O,CC50,[10],33.2 µM (active)
COc1cccc(NC(=O)N(C2CCCCC2)C(C)c2cccs2)c1 (stereo unspecified),IC50,[7],8.59 µM (not active)
